Laboratory results: paper PMC11671526, “β-caryophyllene sensitizes hepatocellular carcinoma cells to chemotherapeutics and inhibits cell malignancy through targeting MAPK signaling pathway” (Frontiers in Pharmacology, 2024)

System: HepG2 cells
Assay: RNA-seq transcriptome analysis of differentially expressed genes
Assay type: cell-based, human
Settings: BCP vs control HepG2
Protocol: The quality and concentration of RNA were examined by MOPS RNA electrophoresis and Eppendorf BioSpectrometer. The transcriptome analysis was performed by BGI-Wuhan China. The RNA-seq dataset of this study is accessible in the Gene Expression Omnibus (GEO) with an access number of GSE276099. The sequence library for each sample was prepared using the BGISEQ-500 platform with a 50-bp single-end (SE50) format. […]2.2.1) was used to align the clean reads to the reference genome and alignment of the clean reads to the reference genes was carried out using Bowtie2 (v2.4.5) ([Langmead and Salzberg, 2012]; [Kim et al., 2015]). Gene expression levels were calculated by RSEM (v1.3.1) ([Li and Dewey, 2011]). Analysis of differential gene expression was performed using edgeR in the Bioconductor software package ([Robinson et al., 2010]). Using a standard protocol, the RNA samples were also examined by reverse transcription and quantitative polymerase chain reaction (RT-qPCR). In brief, for reverse transcription, total RNA (1 μg) and gDNA wiper Mix were incubated at 42°C for 2 min. The samples were immediately incubated with a master mix containing 10 pmol/μL of poly (dT) primers at 37°C for 15 min and 85°C for 5 s. To detect the expression of specific genes by qPCR analysis, gene-specific primers (shown in Supplementary Table S1) were mixed with the ChamQ Universal SYBER qPCR Master Mix and the reaction was conducted using the Roche Lightcycler 480. The GAPDH value was used to normalize the results of each gene. The RNA-seq data of BCP-treated HepG2 cells were screened for DEGs. Gene symbols were turned into Enterz ID using the org.Hs.eg.db Bio-conductor R package. The cluster profiler (v4.6.2) package was used to perform the Kyoto Encyclopedia of Genes and Genomes (KEGG) and Gene Ontology (GO) enrichment analyses ([Wu et al., 2021]). Following the Transcript per million (TPM) data of the dataset, the line chart, and heatmap were plotted using ggplot2 and pheatmap R packages, respectively.

Q: What does the source list for `C=C1CC/C=C(\C)CC[C@@H]2[C@@H]1CC2(C)C` [BCP, β-caryophyllene]?
A: change EGLN3 (gene EGLN3, DEG direction): Down; logFC EHF (gene EHF, RNA-seq): -2.096; change EHF (gene EHF, DEG direction): Down; logFC EPHX1 (gene EPHX1, RNA-seq): -0.6153; change EPHX1 (gene EPHX1, DEG direction): Down; logFC ETNPPL (gene ETNPPL, RNA-seq): -2.349; change ETNPPL (gene ETNPPL, DEG direction): Down; logFC EVA1A (gene EVA1A, RNA-seq): -3.085; change EVA1A (gene EVA1A, DEG direction): Down; logFC F2RL1 (gene F2RL1, RNA-seq): -0.7544; change F2RL1 (gene F2RL1, DEG direction): Down; logFC FAH (gene FAH, RNA-seq): 0.7875; change FAH (gene FAH, DEG direction): Up; logFC FAM13C (gene FAM13C, RNA-seq): 0.699; change FAM13C (gene FAM13C, DEG direction): Up; logFC FAM72C (gene FAM72C, RNA-seq): 1.971; change FAM72C (gene FAM72C, DEG direction): Up; logFC FBXO2 (gene FBXO2, RNA-seq): -0.7473; change FBXO2 (gene FBXO2, DEG direction): Down; logFC FBXO27 (gene FBXO27, RNA-seq): -1.235; change FBXO27 (gene FBXO27, DEG direction): Down; logFC FBXO44 (gene FBXO44, RNA-seq): -0.6394; change FBXO44 (gene FBXO44, DEG direction): Down; logFC FGFBP1 (gene FGFBP1, RNA-seq): -1.07; change FGFBP1 (gene FGFBP1, DEG direction): Down; logFC FRMD3 (gene FRMD3, RNA-seq): -1.073; change FRMD3 (gene FRMD3, DEG direction): Down; logFC FZD4 (gene FZD4, RNA-seq): -0.6196; change FZD4 (gene FZD4, DEG direction): Down; logFC GALNT13 (gene GALNT13, RNA-seq): 1.877; change GALNT13 (gene GALNT13, DEG direction): Up; logFC GALNTL6 (gene GALNTL6, RNA-seq): 1.303; change GALNTL6 (gene GALNTL6, DEG direction): Up; logFC GBP2 (gene GBP2, RNA-seq): -1.229; change GBP2 (gene GBP2, DEG direction): Down; logFC GIPR (gene GIPR, RNA-seq): -0.7811; change GIPR (gene GIPR, DEG direction): Down; logFC GJB5 (gene GJB5, RNA-seq): -0.706; change GJB5 (gene GJB5, DEG direction): Down; logFC GLIS3 (gene GLIS3, RNA-seq): 0.614; change GLIS3 (gene GLIS3, DEG direction): Up; logFC GNAZ (gene GNAZ, RNA-seq): -0.722; change GNAZ (gene GNAZ, DEG direction): Down; logFC GOLGA6L10 (gene GOLGA6L10, RNA-seq): 2.939; change GOLGA6L10 (gene GOLGA6L10, DEG direction): Up; logFC GPER1 (gene GPER1, RNA-seq): -0.7995; change GPER1 (gene GPER1, DEG direction): Down; logFC GPNMB (gene GPNMB, RNA-seq): 0.8482; change GPNMB (gene GPNMB, DEG direction): Up; logFC GSDME (gene GSDME, RNA-seq): 0.7468; change GSDME (gene GSDME, DEG direction): Up; logFC H1-2 (gene H1-2, RNA-seq): -0.7028; change H1-2 (gene H1-2, DEG direction): Down; logFC H2AC6 (gene H2AC6, RNA-seq): -0.6896; change H2AC6 (gene H2AC6, DEG direction): Down; logFC H2AC18 (gene H2AC18, RNA-seq): -0.6059; change H2AC18 (gene H2AC18, DEG direction): Down; logFC H2BC5 (gene H2BC5, RNA-seq): -0.8919; change H2BC5 (gene H2BC5, DEG direction): Down; logFC H2BC11 (gene H2BC11, RNA-seq): -0.8769; change H2BC11 (gene H2BC11, DEG direction): Down; logFC H2BC12 (gene H2BC12, RNA-seq): -0.7141; change H2BC12 (gene H2BC12, DEG direction): Down; logFC H2BC21 (gene H2BC21, RNA-seq): -0.7522; change H2BC21 (gene H2BC21, DEG direction): Down; logFC H3C14 (gene H3C14, RNA-seq): -8.816; change H3C14 (gene H3C14, DEG direction): Down; logFC H3C15 (gene H3C15, RNA-seq): 8.416; change H3C15 (gene H3C15, DEG direction): Up; logFC HHLA2 (gene HHLA2, RNA-seq): -1.815; change HHLA2 (gene HHLA2, DEG direction): Down; logFC HIC1 (gene HIC1, RNA-seq): -1.286; change HIC1 (gene HIC1, DEG direction): Down; logFC HID1 (gene HID1, RNA-seq): -3.326; change HID1 (gene HID1, DEG direction): Down; logFC HJURP (gene HJURP, RNA-seq): 0.601; change HJURP (gene HJURP, DEG direction): Up; logFC HK1 (gene HK1, RNA-seq): -0.5879; change HK1 (gene HK1, DEG direction): Down; logFC HMG20B (gene HMG20B, RNA-seq): 0.778; change HMG20B (gene HMG20B, DEG direction): Up; logFC HMMR (gene HMMR, RNA-seq): 0.8153; change HMMR (gene HMMR, DEG direction): Up; logFC HPDL (gene HPDL, RNA-seq): -0.6564; change HPDL (gene HPDL, DEG direction): Down; logFC HSPA5 (gene HSPA5, RNA-seq): 0.6968; change HSPA5 (gene HSPA5, DEG direction): Up; logFC IFI35 (gene IFI35, RNA-seq): 0.5837; change IFI35 (gene IFI35, DEG direction): Up; logFC IFITM1 (gene IFITM1, RNA-seq): -1.457; change IFITM1 (gene IFITM1, DEG direction): Down; logFC IL34 (gene IL34, RNA-seq): -0.7177; change IL34 (gene IL34, DEG direction): Down; logFC IQGAP3 (gene IQGAP3, RNA-seq): 0.8425; change IQGAP3 (gene IQGAP3, DEG direction): Up; logFC ITPR1 (gene ITPR1, RNA-seq): 0.8272; change ITPR1 (gene ITPR1, DEG direction): Up; logFC KCNH3 (gene KCNH3, RNA-seq): -0.6893; change KCNH3 (gene KCNH3, DEG direction): Down; logFC KCNJ18 (gene KCNJ18, RNA-seq): 0.8616; change KCNJ18 (gene KCNJ18, DEG direction): Up; logFC KCNK3 (gene KCNK3, RNA-seq): -0.6699; change KCNK3 (gene KCNK3, DEG direction): Down; logFC KIAA1614 (gene KIAA1614, RNA-seq): 0.6603; change KIAA1614 (gene KIAA1614, DEG direction): Up; logFC KLHDC7B (gene KLHDC7B, RNA-seq): 0.8443; change KLHDC7B (gene KLHDC7B, DEG direction): Up; logFC KLRG1 (gene KLRG1, RNA-seq): -1.335; change KLRG1 (gene KLRG1, DEG direction): Down; logFC LCK (gene LCK, RNA-seq): -3.081; change LCK (gene LCK, DEG direction): Down; logFC LFNG (gene LFNG, RNA-seq): -0.7084; change LFNG (gene LFNG, DEG direction): Down; logFC LHFPL2 (gene LHFPL2, RNA-seq): -0.5801; change LHFPL2 (gene LHFPL2, DEG direction): Down; logFC LIMS3 (gene LIMS3, RNA-seq): 8.319; change LIMS3 (gene LIMS3, DEG direction): Up
